# Test results reported in paper PMC12073449, “Development of a Mechanism of Action-Reflective Cell-Based Reporter Gene Assay for Measuring Bioactivities of Therapeutic Glucagon-like Peptide-2 Analogues” (Molecules, 2025).
# Ends that are not written are not given here.
# Tested on: HEK293-GLP-2R-Luc cells
substance,measurement,setting,value
HGEGTFSSELATILDALAARDFINWLIATKITDKKKKKK-NH2 [glepaglutide],log2 (TD/Ctrl) TMEM54,Qvalue 0.021231,1.072
same,log2 (TD/Ctrl) RYR1,Qvalue 0.021465,1.055
same,log2 (TD/Ctrl) PHKG1,Qvalue 0.021994,1.955
same,log2 (TD/Ctrl) KLF6,Qvalue 0.022289,1.402
same,log2 (TD/Ctrl) LRRTM4,Qvalue 0.022315,−1.285
same,log2 (TD/Ctrl) PHOSPHO2,Qvalue 0.023229,−1.059
same,log2 (TD/Ctrl) MICOS10-NBL1,Qvalue 0.023249,1.952
same,log2 (TD/Ctrl) PDE3A,Qvalue 0.023634,1.882
same,log2 (TD/Ctrl) LARGE2,Qvalue 0.023651,1.17
same,log2 (TD/Ctrl) HES7,Qvalue 0.024442,1.525
same,log2 (TD/Ctrl) VSTM2B,Qvalue 0.024619,1.668
same,log2 (TD/Ctrl) INSM1,Qvalue 0.02493,1.259
same,log2 (TD/Ctrl) SIK1,Qvalue 0.025061,1.255
same,log2 (TD/Ctrl) IQANK1,Qvalue 0.02555,−1.07
same,log2 (TD/Ctrl) TRABD2A,Qvalue 0.026368,1.121
same,log2 (TD/Ctrl) RAB20,Qvalue 0.026593,1.265
same,log2 (TD/Ctrl) ADAM8,Qvalue 0.026923,−1.632
same,log2 (TD/Ctrl) EGR2,Qvalue 0.027245,1.924
same,log2 (TD/Ctrl) ACTRT3,Qvalue 0.027976,−1.89
same,log2 (TD/Ctrl) CILP2,Qvalue 0.028089,1.014
same,log2 (TD/Ctrl) KCNJ4,Qvalue 0.028153,1.521
same,log2 (TD/Ctrl) NGFR,Qvalue 0.0305,1.083
same,log2 (TD/Ctrl) GPR146,Qvalue 0.031918,−1.284
same,log2 (TD/Ctrl) SLC2A9,Qvalue 0.032594,−1.825
same,log2 (TD/Ctrl) FIBIN,Qvalue 0.032833,−1.931
same,log2 (TD/Ctrl) INSC,Qvalue 0.033388,1.775
same,log2 (TD/Ctrl) TRPM4,Qvalue 0.034028,1.164
same,log2 (TD/Ctrl) TOR4A,Qvalue 0.034573,−1.123
same,log2 (TD/Ctrl) ANXA3,Qvalue 0.034821,1.046
same,log2 (TD/Ctrl) F2RL2,Qvalue 0.035979,2.195
same,log2 (TD/Ctrl) GFRA2,Qvalue 0.036382,1.989
same,log2 (TD/Ctrl) CHD5,Qvalue 0.036855,1.476
same,log2 (TD/Ctrl) IER5L,Qvalue 0.037055,1.227
same,log2 (TD/Ctrl) CORO1A,Qvalue 0.03809,1.157
same,log2 (TD/Ctrl) DMRT1,Qvalue 0.038243,2.578
same,log2 (TD/Ctrl) TMEM200A,Qvalue 0.038553,2.008
same,log2 (TD/Ctrl) BIRC3,Qvalue 0.038759,1.213
same,log2 (TD/Ctrl) GJB7,Qvalue 0.040011,−1.706
same,log2 (TD/Ctrl) PABIR3,Qvalue 0.044085,1.001
same,log2 (TD/Ctrl) DAB1,Qvalue 0.044461,1.527
same,log2 (TD/Ctrl) CLIC5,Qvalue 0.046355,1.134
same,log2 (TD/Ctrl) LOC124904248,Qvalue 0.046402,−1.239
same,log2 (TD/Ctrl) FOXD4,Qvalue 0.046871,−1.765
same,log2 (TD/Ctrl) SNAI2,Qvalue 0.046941,1.1
same,log2 (TD/Ctrl) ANKRD20A1,Qvalue 0.047154,1.015
same,log2 (TD/Ctrl) MVP,Qvalue 0.048413,1.066
same,log2 (TD/Ctrl) SHISA8,Qvalue 0.048554,1.031
same,log2 (TD/Ctrl) TBC1D3C,Qvalue 0.04891,−2.321
same,log2 (TD/Ctrl) CDH1,Qvalue 0.049404,1.135
same,log2 (TD/Ctrl) ZNF296,Qvalue 0.049596,1.005
same,log2 (TD/Ctrl) IRX4,Qvalue 1.00 × 10^−4,3.763
same,log2 (TD/Ctrl) LYPD6,Qvalue 1.04 × 10^−4,−1.124
same,log2 (TD/Ctrl) TGFB1,Qvalue 1.04 × 10^−9,1.683
same,log2 (TD/Ctrl) SMOX,Qvalue 1.04 × 10^−10,1.479
same,log2 (TD/Ctrl) GPR3,Qvalue 1.05 × 10^−12,3.013
same,log2 (TD/Ctrl) PMAIP1,Qvalue 1.07 × 10^−13,1.02
same,log2 (TD/Ctrl) CCN1,Qvalue 1.09 × 10^−13,1.83
same,log2 (TD/Ctrl) BAX,Qvalue 1.10 × 10^−10,−1.136
same,log2 (TD/Ctrl) ACTBL2,Qvalue 1.10 × 10^−21,2.68
same,log2 (TD/Ctrl) CREM,Qvalue 1.18 × 10^−18,1.319
same,log2 (TD/Ctrl) TFPI,Qvalue 1.19 × 10^−6,1.103
same,log2 (TD/Ctrl) CFAP44,Qvalue 1.21 × 10^−4,−1.2179
same,log2 (TD/Ctrl) SPRY4,Qvalue 1.22 × 10^−4,1.583
same,log2 (TD/Ctrl) GCNT1,Qvalue 1.22 × 10^−6,−1.113
same,log2 (TD/Ctrl) DUSP1,Qvalue 1.23 × 10^−13,2.837
same,log2 (TD/Ctrl) MAFK,Qvalue 1.26 × 10^−13,1.561
same,log2 (TD/Ctrl) GEM,Qvalue 1.30 × 10^−33,2.896
same,log2 (TD/Ctrl) EML2,Qvalue 1.31 × 10^−5,1.098
same,log2 (TD/Ctrl) ECEL1,Qvalue 1.32 × 10^−6,2.018
same,log2 (TD/Ctrl) NFATC1,Qvalue 1.32 × 10^−9,1.146
same,log2 (TD/Ctrl) LBHD1,Qvalue 1.34 × 10^−6,−1.453
same,log2 (TD/Ctrl) GNG4,Qvalue 1.34 × 10^−10,1.107
same,log2 (TD/Ctrl) GFPT2,Qvalue 1.35 × 10^−4,1.08
same,log2 (TD/Ctrl) HOXB6,Qvalue 1.35 × 10^−4,−1.274
same,log2 (TD/Ctrl) VGF,Qvalue 1.36 × 10^−15,2.99
same,log2 (TD/Ctrl) USP4,Qvalue 1.38 × 10^−4,1.002
same,log2 (TD/Ctrl) CASD1,Qvalue 1.39 × 10^−4,−1.007
same,log2 (TD/Ctrl) SGK1,Qvalue 1.39 × 10^−7,1.322
same,log2 (TD/Ctrl) PHLDA1,Qvalue 1.40 × 10^−4,1.224
same,log2 (TD/Ctrl) NDRG1,Qvalue 1.40 × 10^−27,1.674
same,log2 (TD/Ctrl) EMILIN2,Qvalue 1.41 × 10^−13,1.304
same,log2 (TD/Ctrl) TPM4,Qvalue 1.41 × 10^−16,1.086
same,log2 (TD/Ctrl) FOSB,Qvalue 1.44 × 10^−4,2.796
same,log2 (TD/Ctrl) IER3,Qvalue 1.44 × 10^−12,1.677
same,log2 (TD/Ctrl) AHR,Qvalue 1.47 × 10^−8,1.016
same,log2 (TD/Ctrl) SPINT1,Qvalue 1.47 × 10^−8,1.307
same,log2 (TD/Ctrl) PTP4A1,Qvalue 1.47 × 10^−41,1.5
same,log2 (TD/Ctrl) FOSL2,Qvalue 1.49 × 10^−13,1.385
same,log2 (TD/Ctrl) GADD45A,Qvalue 1.52 × 10^−19,1.573
same,log2 (TD/Ctrl) FOS,Qvalue 1.54 × 10^−5,3.22
same,log2 (TD/Ctrl) SMAD6,Qvalue 1.54 × 10^−5,−1.023
same,log2 (TD/Ctrl) FADS2,Qvalue 1.54 × 10^−10,−1.136
same,log2 (TD/Ctrl) DNAJB5,Qvalue 1.56 × 10^−4,1.316
